Test system: implanted tumors
Assay: Comparison of anti-tumor activity of ScFv-7 with tamoxifen on tumor-bearing nude mice
Format: in vivo, BALB/c-nu female nude mice
Conditions: after 18 days of drug administration
Description: BALB/c-nu female nude mice were divided into 3 groups, with 7 mice in each group.
Human anti-ERα36 ScFv-7 was administered at the dose of 0.1 mg/20 g body weight/day. The positive control tamoxifen was administered at the dose of 0.33 mg/20 g body weight/day. The negative control group was administered with human IgG.
The tumor-bearing nude mice were weighed, and the volumes of the implanted tumors were measured every 3-4 days. The relative tumor volumes and tumor growth inhibition rates were calculated using Equation 2 and Equation 4 respectively. Animals received drug administration for 18 days and were terminated 24 h later. The tumors were excised from the animals and weighed. The average tumor weights and tumor growth inhibitions were calculated using Equation 4.

CC/C(=C(\c1ccccc1)c1ccc(OCCN(C)C)cc1)c1ccccc1 [tamoxifen, reference compound]
tumor inhibition rates (ScFv-7 0.1 mg/20 g body weight/day, tamoxifen 0.33 mg/20 g body weight/day): around 60%
average tumor weights compared with negative group (p-values below 0.01): significant difference

Source: patent US20110311517A1, “Antibodies and methods for treating estrogen receptor-associated diseases” (SHENOGEN PHARMA GROUP, LTD., priority 2009, published 2011)
